What was measured:
[1] = tested on: pancreatic adenocarcinoma cells; conditions: in one study; cited from earlier work
[2] = tested on: pancreatic adenocarcinoma cells; experiment: DNA synthesis by bromodeoxyuridine (BrdU) incorporation into adenocarcinoma cells; assay type: cell-based, human; conditions: 24 hours
Source text: To investigate whether these peptide hormones were inhibiting DNA synthesis and cell proliferation bromodeoxyuridine (BrdU) incorporation into the adenocarcinoma cells was utilized. BrdU was from BD Bioscience, San Jose, Calif. DNA synthesis and doubling of the genome take place during the synthetic or S phase. BrdU is a thymidine analog incorporated into nuclear DNA during the S phase of the cell cycle. Immunohistochemical methods use BrdU also as a marker of cell proliferation in cancer biology studies. After 24 hours in culture with 1 μM of LANP, vessel dilator, kaliuretic peptide, or ANP, respectively, or with no peptide hormone (i.e., control), BrdU in a final concentration of 10 μM in the cell culture medium was added for 45 minutes—which is time in which the cells are in the logarithmic phase of cell proliferation. For immunohistochemistry, a BrdU in situ detection kit from Becton Dickinson Immunocytochemistry Systems, San Jose, Calif., was utilized.
After the 45 minutes with BrdU, the adenocarcinoma cells were washed three times in phosphate buffered saline (PBS), five minutes each. This was followed by placing the cells in a −80° C. freezer for five minutes and then 100% methanol was added at 5° C. in order for the cells to become permeable enabling the anti-BrdU antibody to reach the nucleus of the cell. The cells were then washed again in PBS before 100 μl of biotinylated anti-BrdU antibody was added. The coverslips were then incubated in a humidified chamber for one hour. After this incubation, the slides were rinsed in PBS, two minutes each. Then streptavidin-horseradish peroxidase (HRP) was added to each coverslip. The cells were then incubated for 30 minutes. Streptavidin-HRP binds to biotinylated anti-BrdU and HRP is used with addition of diaminobenzidine (DAB) substrate system to visualize BrdU incorporation into the adénocarcinoma cells. After the 30 minute incubation with streptavidin-HRP, the coverslips were rinsed in PBS, two minutes each time, before adding the DAB substrate solution, which contains DAB chromagen and DAB buffer, for five minutes. The coverslips were then rinsed in water, two minutes each time before counterstaining the slides with hematoxylin for 60 seconds followed by a thorough rinsing in water for five minutes. The incorporation of the BrdU stain into the nucleus was then counted using a Nikon Inverted Diaphot-TMD Microscope (Tokyo, Japan). The number of stained nuclei was compared in the four peptide hormone groups to the positive control group. The negative control for these studies was provided by Becton Dickinson Immunocytochemistry Systems.
BrdU has an advantage over ^3H-thymidine incorporation in that it takes less time and provides high resolution.
Cyclic GMP and prostaglandin E2 are the two known mediators of all of the previously described biologic effects of these four peptide hormones. All four of these peptide hormones-induced vasodilation of vasculature is mediated by increased cyclic GMP concentrations via enhancing guanylate cyclase activity. […] ANPs effects in the kidney are thought to be mediated by cyclic GMP. Each of these peptide hormones increase cyclic GMP while simultaneously dilating vasculature. 8 bromo-cyclic GMP reproduces these vasodilatory effects. For the present investigation of the mechanism of these peptide hormones' ability to inhibit DNA synthesis in cancer cells, 8-bromoguanosine 3′,5′-cyclic monophosphate (i.e., 8-bromo cyclic GMP, Sigma-Aldrich Co., St. Louis, Mo.) was utilized. 8-bromo cyclic GMP is a cell-permeable analog of cyclic GMP. 8-bromo cyclic GMP effects on DNA synthesis were investigated in dose-response curves with cyclic GMP concentrations ranging from 100 pM to 5 mM.
Prostaglandin E2, i.e., (5Z, 11α, 13E, 15S)-11, 15-dihydro-9-oxo-prosta-5, 13-dien-I-oic acid was purchased from Sigma-Aldrich, St. Louis, Mo. […]

rat mesangial cells = conditions: cited from earlier work
[3] = tested on: pancreatic adenocarcinoma cell line, ATCC number CRL-2119; experiment: Number of pancreatic adenocarcinoma cells in culture, counted by microscope; assay type: cell-based, human; conditions: for number of cancer cells compared to controls: 48 hours
Source text: The pancreatic adenocarcinoma cell line, ATCC number CRL-2119, was derived in 1985 from a nude mouse xenograft of a primary tumor removed from the head of the pancreas. It is a moderate to well-differentiated pancreatic adenocarcinoma of ductal origin. These pancreatic adenocarcinoma cells are stimulated to proliferate in culture by insulin, insulin-like growth factor I (IGF-I), epidermal growth factor (EGF), and transforming growth factor alpha (TGF alpha). These adenocarcinoma cells contain significant concentrations of tumor-associated antigens CEA, CA 125, and CA 19-9. In culture, these adenocarcinoma cells form monolayers of morphologically heterogeneous polar epithelial cells. These cells are tumorgenic in that they form tumors in athymic nude mice at the site of inoculation that are histologically similar to the tumor of origin.
Propagation of these cells was in Dulbecco's modified Eagle's plus Ham's F12-A 1:1 mixture of Dulbecco's modified Eagle's medium and Ham's F12 medium containing 1.2 g/L of sodium bicarbonate (Sigma Chemical Co., St. Louis, Mo.) supplemented with 15 mM HEPES and fetal bovine serum, 10%, at a temperature of 37° C. as recommended by the ATCC.
These pancreatic adenocarcinoma cells were subcultured (passaged) by removing spent (i.e., old) medium by aspiration, and then adding calcium and magnesium free Hank's Balanced Salt Solution with 0.25% trypsin and 0.03% ethylenediaminetetracetic acid (EDTA). The culture was allowed to sit at room temperature for 2 to 5 minutes. Fresh medium was added to the adenocarcinoma cells which were dispensed into new flasks, with subculture every 6 to 8 days. The growth medium was changed every three days.
After these adenocarcinoma cells were subcultured for 24 hours, they were then seeded to coverslips and transferred to 24 microwell plates (NUCOLON, Roskilde Denmark), with 1 ml Dulbeco Modified Eagle's (DME)/[…] nutrient culture media (Sigma Chemical Co.) with 10% fetal bovine serum (Atlanta Biologicals, Norcross, Ga.). After 24 hours, wells were washed twice with Dulbecco's Modified Eagle's/Ham's F12 with 0.1% bovine serum albumin (Sigma-Aldrich, St. Louis, Mo.) and allowed to incubate in this serum free medium for an additional 24 hour period of serum deprivation. Serum-free media was utilized to remove all variables (EGF, etc.) present in serum in order that interpretation of any data obtained would be straightforward. After 24 hours of serum deprivation, media volume was reduced to 250 μL per well with or without the respective peptide hormones at their 1 μM concentrations (1% of this volume). The adenocarcinoma cells were then incubated for various periods of time (24, 48, 72, and 96 hours).At the end of the above time periods, hematoxylin was added for 5 minutes to make the cells more visible for counting, and then they were washed for 5 minutes. The coverslips were then placed face down on microscope slides with the addition of 6 μl of histologic grade phosphate buffered saline (PBS)/I-glycine that had been filtered immediately before use with a 0.22 μm polyethersulfone, nonpyrogenic, sterile, low protein binding membrane (Corning 43117, Corning Inc., Corning, N.Y.). The number of adenocarcinoma cells were then counted with a cell counter evaluating ten fields of the microscope slide at 40× along the X-axis with an Olympus BH-2 microscope (Atlanta, Ga.). This evaluation was repeated on six separate occasions with the number of adenocarcinoma cells reflecting 60 observations for each group, i.e., 60 observations for controls and 60 observations for each of the four groups with respective peptide hormones. The only variable in this investigation was whether one of the four peptide hormones was added to the pancreatic adenocarcinoma cells. Otherwise all the adenocarcinoma cells were treated the same, i.e., with same culture medium, time of incubation, and processing of cells for the various investigations. […]

hepatoblastoma cells = conditions: cited from earlier work

Molecule: O=c1[nH]cc(F)c(=O)[nH]1 [5-FU, 5-fluorouracil]
- decrease in pancreatic adenocarcinoma cells in culture [1]: 16%

Molecule: Nc1nc2c(nc(Br)n2[C@@H]2O[C@@H]3COP(=O)(O)O[C@H]3[C@H]2O)c(=O)[nH]1 [8-bromo cyclic GMP, 8-bromoguanosine 3′,5′-cyclic monophosphate]
- decrease in DNA synthesis ([2]; 1 nM): 25%
- decrease in DNA synthesis ([2]; 1 μM): 34%
- decrease in DNA synthesis ([2]; 100 μM): 39%
- decrease in DNA synthesis ([2]; 1 mM): 42%
- decrease in DNA synthesis ([2]; 3 mM): 46%
- decrease in DNA synthesis ([2]; 5 mM): 51%

Molecule: CC[C@H](C)[C@@H]1NC(=O)[C@H](CCCNC(=N)N)NC(=O)[C@H](CC(=O)O)NC(=O)[C@H](CCSC)NC(=O)[C@H](CCCNC(=N)N)NC(=O)CNC(=O)CNC(=O)[C@H](Cc2ccccc2)NC(=O)[C@@H](NC(=O)[C@H](CO)NC(=O)[C@H](CO)NC(=O)[C@H](CCCNC(=N)N)NC(=O)[C@H](CCCNC(=N)N)NC(=O)[C@H](CC(C)C)NC(=O)[C@@H](N)CO)CSSC[C@@H](C(=O)N[C@@H](CC(N)=O)C(=O)N[C@@H](CO)C(=O)N[C@@H](Cc2ccccc2)C(=O)N[C@@H](CCCNC(=N)N)C(=O)N[C@@H](Cc2ccc(O)cc2)C(=O)O)NC(=O)CNC(=O)[C@H](CC(C)C)NC(=O)CNC(=O)[C@H](CO)NC(=O)[C@H](CCC(N)=O)NC(=O)[C@H](C)NC(=O)CNC1=O [ANP]
- inhibition of DNA synthesis (rat mesangial cells): 47% to 60
- inhibition of DNA synthesis ([2]; 1 μM): 83%
- number of cancer cells compared to controls ([3]; 1 μM): 33%
- inhibition of DNA synthesis (hepatoblastoma cells): 22%

Molecule: CCCCC[C@H](O)/C=C/[C@H]1[C@H](O)CC(=O)[C@@H]1C/C=C\CCCC(=O)O [prostaglandin E2, (5Z, 11α, 13E, 15S)-11, 15-dihydro-9-oxo-prosta-5, 13-dien-I-oic acid]
- decrease in DNA synthesis ([2]; 10 pg/ml): 4%
- decrease in DNA synthesis ([2]; 1 ng/ml): 5%
- decrease in DNA synthesis ([2]; 10 ng/ml): 5%
- decrease in DNA synthesis ([2]; 0.1 μg/ml): 9%
- decrease in DNA synthesis ([2]; 1 μg/ml): 11%
- decrease in DNA synthesis ([2]; 10 μg/ml): 14%
- decrease in DNA synthesis ([2]; 1 mg/ml): 23%

Molecule: LANP: first 30 amino acids from the N-terminal end of the ANP prohormone (NPMYNAVSNADLMDFKNLLDHLEEKMPLED; long-acting natriuretic peptide; UniProt P01160 26-55, looked up, fragment)
- inhibition of DNA synthesis ([2]; 1 μM): 84%
- decrease in the number of adenocarcinoma cells ([3]; 1 μM, 24 hours, vs untreated cells): 47%
- number of adenocarcinoma cells ([3]; 1 μM, 24 hours, untreated 183.4+/−8): 97.7+/−3 cells per high powered field
- number of cancer cells compared to controls ([3]; 1 μM): 43%
- decrease in the number of adenocarcinoma cells ([3]; 1 μM, 72 hours, vs untreated cells): 47%
- decrease in the number of adenocarcinoma cells ([3]; 1 μM, 96 hours, vs untreated cells): 48%
- decrease in the number of adenocarcinoma cells ([3]; time not stated): ~50%
